What was measured:
[1] = target: Metabotropic glutamate receptor 8 (Rattus norvegicus, UniProt P70579)
[2] = target: Metabotropic glutamate receptor 6 (Rattus norvegicus, UniProt P35349)
Histamine H4 receptor = Histamine H4 receptor (Homo sapiens, UniProt Q9H3N8)
[3] = target: Metabotropic glutamate receptor 5 (Rattus norvegicus, UniProt P31424)
[4] = target: Voltage-dependent L-type calcium channel subunit alpha-1C (Rattus norvegicus, UniProt P22002)
[5] = target: Neuronal acetylcholine receptor subunit alpha-4 (Homo sapiens, UniProt P43681)
Histamine H2 receptor = Histamine H2 receptor (Homo sapiens, UniProt P25021)
Nischarin = Nischarin (Rattus norvegicus, UniProt Q4G017)
[6] = target: Neuronal acetylcholine receptor subunit alpha-2 (Homo sapiens, UniProt Q15822)
Histamine H1 receptor = Histamine H1 receptor (Homo sapiens, UniProt P35367)
[7] = target: Neuronal acetylcholine receptor subunit alpha-3 (Homo sapiens, UniProt P32297)
[8] = target: Neuronal acetylcholine receptor subunit alpha-4 (Rattus norvegicus, UniProt P09483)
[9] = target: Metabotropic glutamate receptor 4 (Rattus norvegicus, UniProt P31423)
[10] = target: Metabotropic glutamate receptor 2 (Rattus norvegicus) (UniProt P31421)
Cannabinoid receptor 1 = Cannabinoid receptor 1 (Rattus norvegicus, UniProt P20272)
[11] = target: Beta-1 adrenergic receptor (Rattus norvegicus, UniProt P18090)
[12] = target: Metabotropic glutamate receptor 1 (Rattus norvegicus, UniProt P23385)

Sequence of Metabotropic glutamate receptor 6 (P35349 whole entry): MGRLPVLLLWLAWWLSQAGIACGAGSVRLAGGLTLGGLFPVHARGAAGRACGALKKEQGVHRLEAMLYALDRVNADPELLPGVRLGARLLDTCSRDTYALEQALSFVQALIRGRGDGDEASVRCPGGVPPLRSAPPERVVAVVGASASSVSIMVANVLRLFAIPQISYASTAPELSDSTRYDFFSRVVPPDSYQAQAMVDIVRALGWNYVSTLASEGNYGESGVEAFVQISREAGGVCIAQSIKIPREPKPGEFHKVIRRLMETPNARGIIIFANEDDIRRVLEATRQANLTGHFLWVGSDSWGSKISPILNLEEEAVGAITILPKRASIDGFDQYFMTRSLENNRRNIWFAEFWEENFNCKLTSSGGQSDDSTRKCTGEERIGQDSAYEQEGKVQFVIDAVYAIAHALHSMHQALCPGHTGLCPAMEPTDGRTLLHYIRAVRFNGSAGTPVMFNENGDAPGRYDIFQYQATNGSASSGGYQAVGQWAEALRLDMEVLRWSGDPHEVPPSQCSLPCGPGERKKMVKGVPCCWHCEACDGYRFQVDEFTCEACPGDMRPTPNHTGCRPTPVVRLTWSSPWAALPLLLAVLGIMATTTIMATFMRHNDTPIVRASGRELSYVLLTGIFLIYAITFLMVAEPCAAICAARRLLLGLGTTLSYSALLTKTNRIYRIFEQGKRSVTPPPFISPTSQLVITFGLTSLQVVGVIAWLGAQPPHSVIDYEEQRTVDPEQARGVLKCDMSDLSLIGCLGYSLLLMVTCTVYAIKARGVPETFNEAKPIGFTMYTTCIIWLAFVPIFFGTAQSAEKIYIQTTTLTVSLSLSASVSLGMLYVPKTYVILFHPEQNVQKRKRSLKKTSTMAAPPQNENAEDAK
Sequence of Metabotropic glutamate receptor 8 (P70579 whole entry): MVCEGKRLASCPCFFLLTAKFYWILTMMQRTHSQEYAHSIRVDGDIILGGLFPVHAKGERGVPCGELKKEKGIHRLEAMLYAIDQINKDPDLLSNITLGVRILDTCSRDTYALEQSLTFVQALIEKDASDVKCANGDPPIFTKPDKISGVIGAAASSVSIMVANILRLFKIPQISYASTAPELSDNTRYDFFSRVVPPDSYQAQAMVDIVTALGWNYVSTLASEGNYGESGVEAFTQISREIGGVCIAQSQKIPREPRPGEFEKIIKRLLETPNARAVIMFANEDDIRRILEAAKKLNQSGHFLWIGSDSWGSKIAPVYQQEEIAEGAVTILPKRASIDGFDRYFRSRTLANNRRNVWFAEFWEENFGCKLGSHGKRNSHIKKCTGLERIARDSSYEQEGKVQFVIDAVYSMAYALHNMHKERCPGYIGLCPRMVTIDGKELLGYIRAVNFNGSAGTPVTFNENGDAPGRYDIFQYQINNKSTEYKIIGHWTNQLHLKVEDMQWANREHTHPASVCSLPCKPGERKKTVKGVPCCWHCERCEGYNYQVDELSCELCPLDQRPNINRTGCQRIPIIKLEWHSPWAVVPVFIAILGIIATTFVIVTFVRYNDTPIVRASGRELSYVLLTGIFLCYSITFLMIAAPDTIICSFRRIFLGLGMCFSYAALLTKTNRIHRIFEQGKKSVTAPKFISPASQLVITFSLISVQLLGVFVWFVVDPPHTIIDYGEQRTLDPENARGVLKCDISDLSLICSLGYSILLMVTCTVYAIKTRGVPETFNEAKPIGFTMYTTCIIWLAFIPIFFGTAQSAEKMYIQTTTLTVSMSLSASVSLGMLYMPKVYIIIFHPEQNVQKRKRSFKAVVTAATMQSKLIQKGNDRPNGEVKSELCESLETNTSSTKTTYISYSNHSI
Sequence of Cannabinoid receptor 1 (P20272 whole entry): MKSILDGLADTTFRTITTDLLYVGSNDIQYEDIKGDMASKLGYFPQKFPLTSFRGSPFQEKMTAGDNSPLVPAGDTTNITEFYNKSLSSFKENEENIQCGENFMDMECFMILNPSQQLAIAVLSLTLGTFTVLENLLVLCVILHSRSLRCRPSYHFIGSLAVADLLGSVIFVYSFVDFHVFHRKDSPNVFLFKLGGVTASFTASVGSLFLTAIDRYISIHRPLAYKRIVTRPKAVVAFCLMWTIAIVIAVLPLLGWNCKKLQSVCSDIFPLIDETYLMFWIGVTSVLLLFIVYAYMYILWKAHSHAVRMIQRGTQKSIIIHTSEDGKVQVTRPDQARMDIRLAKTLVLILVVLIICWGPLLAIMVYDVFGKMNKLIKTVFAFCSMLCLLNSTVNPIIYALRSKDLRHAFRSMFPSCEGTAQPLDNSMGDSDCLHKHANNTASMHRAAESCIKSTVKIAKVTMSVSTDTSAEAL
Sequence of Metabotropic glutamate receptor 4 (P31423 whole entry): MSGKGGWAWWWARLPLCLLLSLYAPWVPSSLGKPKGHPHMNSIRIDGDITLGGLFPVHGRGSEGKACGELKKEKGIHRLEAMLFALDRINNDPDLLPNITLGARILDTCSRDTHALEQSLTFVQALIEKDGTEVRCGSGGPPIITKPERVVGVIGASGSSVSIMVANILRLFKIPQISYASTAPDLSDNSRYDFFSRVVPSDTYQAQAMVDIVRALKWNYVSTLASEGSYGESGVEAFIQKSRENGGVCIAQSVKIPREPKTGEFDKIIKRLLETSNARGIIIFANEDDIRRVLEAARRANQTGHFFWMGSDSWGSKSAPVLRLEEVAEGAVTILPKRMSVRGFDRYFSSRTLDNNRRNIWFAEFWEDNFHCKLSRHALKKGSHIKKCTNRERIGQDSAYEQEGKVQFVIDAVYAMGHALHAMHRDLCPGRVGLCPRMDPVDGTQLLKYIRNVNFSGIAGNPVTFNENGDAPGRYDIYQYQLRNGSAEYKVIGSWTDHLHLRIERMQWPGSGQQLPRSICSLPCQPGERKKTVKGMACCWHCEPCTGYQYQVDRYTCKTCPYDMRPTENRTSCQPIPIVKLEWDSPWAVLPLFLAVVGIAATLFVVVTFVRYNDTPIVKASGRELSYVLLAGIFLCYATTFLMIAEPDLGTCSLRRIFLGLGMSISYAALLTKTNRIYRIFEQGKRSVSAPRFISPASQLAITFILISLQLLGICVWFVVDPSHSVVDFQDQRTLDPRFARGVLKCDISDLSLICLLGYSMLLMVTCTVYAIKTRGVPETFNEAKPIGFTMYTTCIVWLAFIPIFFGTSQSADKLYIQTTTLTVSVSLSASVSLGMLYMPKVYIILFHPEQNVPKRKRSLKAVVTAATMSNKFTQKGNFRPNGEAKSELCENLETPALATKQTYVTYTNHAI
Sequence of Neuronal acetylcholine receptor subunit alpha-4 (Rattus norvegicus, UniProt P09483) (P09483 whole entry): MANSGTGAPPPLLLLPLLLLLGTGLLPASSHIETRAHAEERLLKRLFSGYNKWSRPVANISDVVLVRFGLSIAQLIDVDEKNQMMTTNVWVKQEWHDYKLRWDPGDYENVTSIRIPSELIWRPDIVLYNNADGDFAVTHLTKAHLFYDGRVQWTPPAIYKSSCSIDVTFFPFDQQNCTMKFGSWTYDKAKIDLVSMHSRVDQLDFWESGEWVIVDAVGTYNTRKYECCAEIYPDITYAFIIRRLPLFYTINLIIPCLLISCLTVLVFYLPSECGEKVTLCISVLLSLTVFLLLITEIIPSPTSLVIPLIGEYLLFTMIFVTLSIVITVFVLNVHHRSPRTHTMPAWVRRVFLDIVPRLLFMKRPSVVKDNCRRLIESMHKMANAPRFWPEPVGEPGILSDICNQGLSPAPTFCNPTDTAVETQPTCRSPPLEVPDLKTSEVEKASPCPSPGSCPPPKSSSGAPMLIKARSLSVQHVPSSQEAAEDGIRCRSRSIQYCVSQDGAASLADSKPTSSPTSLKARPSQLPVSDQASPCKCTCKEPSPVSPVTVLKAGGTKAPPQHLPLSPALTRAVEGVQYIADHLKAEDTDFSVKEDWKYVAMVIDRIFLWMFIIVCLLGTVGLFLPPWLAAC
Sequence of Metabotropic glutamate receptor 2 (Rattus norvegicus) (P31421 whole entry, looked up): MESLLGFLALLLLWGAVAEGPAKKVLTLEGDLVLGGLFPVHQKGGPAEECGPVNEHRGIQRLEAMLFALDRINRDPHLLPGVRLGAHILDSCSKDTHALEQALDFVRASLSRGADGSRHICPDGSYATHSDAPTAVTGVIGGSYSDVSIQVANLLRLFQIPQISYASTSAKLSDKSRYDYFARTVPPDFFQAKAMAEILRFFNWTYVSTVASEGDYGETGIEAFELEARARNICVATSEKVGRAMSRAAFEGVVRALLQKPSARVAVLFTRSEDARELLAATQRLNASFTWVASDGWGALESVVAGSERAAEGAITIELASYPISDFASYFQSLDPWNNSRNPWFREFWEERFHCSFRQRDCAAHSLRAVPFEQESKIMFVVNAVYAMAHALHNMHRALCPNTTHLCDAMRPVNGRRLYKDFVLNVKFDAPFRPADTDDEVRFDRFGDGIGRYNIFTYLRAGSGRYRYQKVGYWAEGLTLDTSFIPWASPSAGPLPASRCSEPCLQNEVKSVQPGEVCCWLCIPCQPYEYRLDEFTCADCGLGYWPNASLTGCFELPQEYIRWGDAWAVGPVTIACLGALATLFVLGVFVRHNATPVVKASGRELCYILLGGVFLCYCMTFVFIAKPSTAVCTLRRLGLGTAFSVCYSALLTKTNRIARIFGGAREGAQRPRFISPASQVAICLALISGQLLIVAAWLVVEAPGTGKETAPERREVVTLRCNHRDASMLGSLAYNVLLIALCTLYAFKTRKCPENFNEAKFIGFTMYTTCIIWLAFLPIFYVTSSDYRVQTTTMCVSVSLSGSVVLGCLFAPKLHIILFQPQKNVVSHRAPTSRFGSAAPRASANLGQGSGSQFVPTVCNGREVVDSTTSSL
Sequence of Histamine H2 receptor (P25021 whole entry): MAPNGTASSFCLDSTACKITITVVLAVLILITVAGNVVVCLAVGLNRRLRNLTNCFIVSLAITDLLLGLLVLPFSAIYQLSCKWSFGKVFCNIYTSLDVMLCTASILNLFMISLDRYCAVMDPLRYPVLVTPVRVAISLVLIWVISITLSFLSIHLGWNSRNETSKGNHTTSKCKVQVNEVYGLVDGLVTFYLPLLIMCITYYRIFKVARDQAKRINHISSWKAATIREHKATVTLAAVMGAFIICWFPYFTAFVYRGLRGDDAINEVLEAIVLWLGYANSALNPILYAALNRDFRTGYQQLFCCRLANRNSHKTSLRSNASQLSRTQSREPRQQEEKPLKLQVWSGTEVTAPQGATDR

Structure (SMILES): N[C@@H](CCP(=O)(O)O)C(=O)O
- EC50 [1]: 1.26 µM
- EC50 [2]: 0.398 µM

Structure (SMILES): N[C@@H](CCS(=O)(=O)O)C(=O)O [L-homocysteic acid]
- Ki (Histamine H4 receptor): > 10 µM
- EC50 [3]: 6.31 µM
- Ki [4]: > 10 µM
- Ki [5]: > 10 µM
- EC50 [1]: > 10 µM
- Ki (Histamine H2 receptor): > 10 µM
- EC50 [2]: 7.94 µM
- Ki (Nischarin): > 10 µM
- Ki [6]: > 10 µM
- Ki (Histamine H1 receptor): > 10 µM
- Ki [7]: > 10 µM
- Ki [8]: > 10 µM
- EC50 [9]: > 10 µM
- EC50 [10]: > 10 µM
- Ki (Cannabinoid receptor 1): > 10 µM
- Ki [11]: > 10 µM
- EC50 [12]: > 10 µM

From BindingDB's records for doi:10.1124/jpet.102.047092 (Case Western Reserve University, 2003)
